The source of these data is paper PMC10850145, “Hormonal steroids induce multidrug resistance and stress response genes in Neisseria gonorrhoeae by binding to MtrR” (Nature Communications, 2024).

In one assay the test system is wild type FA19. Kind of assay: Antimicrobial susceptibility spot assay with hormone plus azithromycin or polymyxin B, wild type FA19. As to conditions: for resistance to azithromycin in presence of sub-lethal hormone: wild-type FA19, GC agar, 24 h, visual. The assay is classed as cell-based, Neisseria gonorrhoeae. As for the experimental part: (§1) Fig. 5 Effect of steroidal hormones on gonococcal antimicrobial susceptibility.
(§2) To determine the minimal inhibitory concentrations (MICs) by the steroidal hormones and their effect on antimicrobial susceptibility, 5 x 10^5 CFU and 1:5 serial dilutions of gonococcal strains were spotted on GC agar plates containing different concentrations of antibiotics and/or hormones as indicated. Antimicrobial susceptibility was assessed after 24 h incubation.

Assay [1] relates to mutant strain JF1 (ΔmtrR). Kind of assay: Antimicrobial susceptibility spot assay with hormone plus antibiotic, JF1 (ΔmtrR). Type of assay: cell-based, Neisseria gonorrhoeae. Conditions: derivative lacking MtrR (JF1), azithromycin. As to the method: as §1, §2
Another assay deals with FA19 mtrD::kan (KH14). Further details: method as in PMID 31744915. Conditions: cited from earlier work.
Another assay relates to lptA-lacZ expression. The experiment in a line: β-galactosidase assay, lptA-lacZ fusion (negative control gene). As to conditions: WT-lptA-lacZ.
The test system of the next assay is ngo1249-lacZ expression. The experiment in a line: β-galactosidase assay, ngo1249-lacZ fusion (negative control gene). As to conditions: WT-NGO1249-lacZ.

On to `CC(=O)[C@H]1CC[C@H]2[C@@H]3CCC4=CC(=O)CC[C@]4(C)[C@H]3CC[C@]12C` [Progesterone, progesterone], for which the “resistance to azithromycin in presence of sub-lethal hormone” value in the assay on wild type FA19 is listed as “elevated levels of resistance”. In addition, the “change in antibiotic resistance in presence of sub-lethal hormone” value in assay [1] is recorded as “did not show change”. For the same compound, the “change of MIC by mutations of the mtrD gene” value in the assay on FA19 mtrD::kan (KH14) is on record as “significant decrease”. Besides, the “Mean Miller units” value with lptA-lacZ expression (0.1 µM hormone) amounted to 10 Miller units; in the assay on lptA-lacZ expression (1 µM hormone) it was 13 Miller units; in the assay on lptA-lacZ expression (10 µM hormone) it was 13 Miller units; with lptA-lacZ expression (50 µM hormone), 10 Miller units; with lptA-lacZ expression (100 µM hormone), 12 Miller units; in the assay on ngo1249-lacZ expression (0.1 µM hormone) it was 5 Miller units. For the same compound, the “Mean Miller units” value with ngo1249-lacZ expression (1 µM hormone) is given as 8 Miller units; in the assay on ngo1249-lacZ expression (10 µM hormone), 8 Miller units; with ngo1249-lacZ expression (50 µM hormone), 6.43 Miller units; in the assay with ngo1249-lacZ expression (100 µM hormone), 6.923 Miller units.
For `C[C@]12CC[C@@H]3c4ccc(O)cc4CC[C@H]3[C@@H]1CC[C@@H]2O` [β-Estradiol, β-estradiol], in the assay on wild type FA19 (strain FA19), the “resistance to polymyxin B in presence of hormone” value was “increased resistance”. In the assay with wild type FA19, the “resistance to azithromycin in presence of sub-lethal hormone” value is recorded as “elevated levels of resistance”. Moreover, the “change in antibiotic resistance in presence of sub-lethal hormone” value in assay [1] is given as “did not show change”. For the same compound, the “Mean Miller units” value with lptA-lacZ expression (0.1 µM hormone) came out at 4.54 Miller units; in the assay on lptA-lacZ expression (1 µM hormone), 7 Miller units; in the assay on lptA-lacZ expression (10 µM hormone), 4.45 Miller units; in the assay with lptA-lacZ expression (50 µM hormone) it was 6.62 Miller units; in the assay with lptA-lacZ expression (100 µM hormone), 6 Miller units; in the assay on ngo1249-lacZ expression (0.1 µM hormone) it was 5 Miller units. The “Mean Miller units” value with ngo1249-lacZ expression (1 µM hormone) worked out at 5 Miller units; in the assay with ngo1249-lacZ expression (10 µM hormone) it was 5.32 Miller units; in the assay on ngo1249-lacZ expression (50 µM hormone) it was 4.874 Miller units; with ngo1249-lacZ expression (100 µM hormone), 4.606 Miller units.
